Measured values taken from patent US11078161B2, “Rock-inhibiting compound and uses thereof” (HITGEN INC., priority 2017, dated 2021).

What was measured:
[1] = tested on: phosphorylation of the myosin light chain (T18/S19) of smooth muscle cells A7r5; assay: Detection of myosin light chain phosphorylation by In-Cell Western Blotting; assay type: cell-based; settings: rat smooth muscle cells A7r5, 1 h incubation in serum-free medium; read-out: A7r5 (IC50 class, inhibition of myosin light chain phosphorylation)
Protocol: ROCK2 was capable of altering the cytoskeleton by phosphorylating two amino acid sites (T18 and S19) on the myosin light chain. Smooth muscle cells A7r5 of rats were selected, inoculated into a 96 well black plate with a transparent bottom and cultured with DMEM containing 10% FBS. After cultured overnight, the cells were treated by serum starvation for 4 h and then incubated with respective compounds in serum-free medium for 1 h. The phosphorylation level of the myosin light chain was detected by In-Cell Western Blotting using a phspho-MLC-T18/S19-specific antibody and a secondary detection antibody. The untreated cells were used as positive control; the cells without undergoing primary antibody incubation were used as negative control; and total intracellular protein was used as an internal reference. The results were fitted by a non-linear regression curve with varying slope using GraphPad Prism 5.01 software to determine an IC50 value.
The detection of the inhibitory activity of the above-prepared compounds against the phosphorylation of the myosin light chain of smooth muscle cells A7r5 was performed according to the above process. The results were shown in Table 2, where the compounds were ranked according to the IC50 value.

ROCK2 = ROCK2 (Homo sapiens, UniProt O75116); assay: Measurement of inhibitory activity against ROCK2 (ADP-Glo, S6K substrate); assay type: biochemical; settings: read-out: ROCK2 (IC50 class)
Text: ROCK2 was capable of phosphorylating a substrate of polypeptide S6K (KRRRLASLR) by converting ATP to ADP. An ADP-Glo™ reagent was adopted to terminate this reaction and consume the remaining ATP. Moreover, a kinase detection reagent was introduced to ensure that ATP was further converted into a luminescent signal by an Ultra-Glo™ luciferase while convening ADP into ATP, allowing the kinase activity to be positively correlated with the intensity of the luminescent signal.
The inhibitory activity against ROCK2 was determined as follows.
(1) A detection buffer containing 40 mM Tris (pH 7.5), 20 mM MgCl2, 0.1% BSA(w/v) and 50 μM DTT was prepared.
(2) 12 μL of 2.5×0.1 μg/mL ROCK2 solution was added to a 96-well PCR plate.
(3) The 96-well PCR plate was added with 6 μL of a 6× compound solution and pre-incubated at 25° C. for 10 min.
(4) Then the 96-well PCR plate was further added with 12 μL of a mixed solution of a 2.5×37.5 μg/mL S6K substrate solution and a 12.5 μM ATP solution, and incubated at 30° C. for 60 min.
(5) 25 μL of the reaction mixture was transferred to a new 96-well PCR plate, mixed with 25 μL of the ADP-Glo™ reagent uniformly and incubated at 25° C. for 40 min to terminate the reaction.
(6) After the reaction was terminated, 40 μL of the reaction mixture was transferred to another 96-well PCR plate, mixed with 40 μL of the kinase detection reagent uniformly and incubated at 25° C. for 40 min.
(7) The luminescence signal was recorded for the calculation of the inhibitory rate.
The inhibitory activity of the above-prepared compounds against the ROCK2 was measured according to the above process, and the results were shown in Table 1, in which the compounds were ranked according to the IC50 value. Specifically, “+” indicated an IC50 value greater than 500 nM; “++” indicated an IC50 value less than 500 nM and greater than 100 nM; and “+++” indicated an IC50 value less than 100 nM.

hypertensive model rats = settings: cited from earlier work
[2] = tested on: New Zealand rabbits with normal intraocular pressure; assay: Animal experiment, normal intraocular pressure model; assay type: in vivo; settings: normal IOP rabbits, 50 μL to the right eye, IOP at 0-10 h
Protocol: 24 male New Zealand rabbits were averagely divided into 4 groups, and were randomly assigned to respective groups using a computer randomized algorithm involving weight. From […] before the experiment, all rabbits were required to be trained to adapt to the operation of intraocular pressure (IOP) measurement, and the training was performed 3 times a day with an interval of about 3 h. The intraocular pressure was measured using a TonoVet tonometer, specifically, individual animals were fixed and the eye to be tested was placed at a position perpendicular to the TonoVet tonometer. The IOP should be measured at least 3 times in each operation until the reading became stable. The results from the last three stable measurements (±3 mmHg) were recorded and averaged to be used as the final IOP value. Respective compounds were weighed and dissolved with normal saline to the desired concentration. At the beginning of the experiment, individual compounds of the invention, reference compound K115 or negative control solvent (50 μL) were administered to the right eye of each animal, and the left eye of each animal was treated by normal saline. The IOP was measured at time points Pre (0 h), 1 h, 2 h, 4 h, 6 h, 8 h and 10 h after the administration of drugs, and the data obtained at respective time points was analyzed by student-t test. The curve of IOP over time was analyzed using the ANOVA test, where a P value of less than 0.05 will be considered to be of statistical significance and the data was expressed by mean±standard deviation.

[3] = tested on: New Zealand rabbits with high intraocular pressure; assay: Animal experiment, high intraocular pressure monocular model; assay type: in vivo; settings: high IOP rabbits, 50 μL per eye three times a day (0, 3rd, 6th h), IOP at 0-8 h
Protocol: 10 male New Zealand rabbits were averagely divided into 2 groups and were randomly assigned to respective groups using a computer randomized algorithm involving weight. From 3 days to 1 day before the experiment, all rabbits were required to be trained to adapt to the operation of intraocular pressure (IOP) measurement, and the training was performed 3 times a day with an interval of about 3 h. The intraocular pressure was measured using a TonoVet tonometer, specifically, individual animals were fixed and the eye to be tested was placed at a position perpendicular to the TonoVet tonometer. The IOP should be measured at least 3 times in each operation until the reading became stable. The results from the last three stable measurements (±3 mmHg) were recorded and averaged to be used as the final IOP value. Respective compounds were weighed and dissolved with normal saline to the desired concentration. Before the induction of high intraocular pressure, the intraocular pressure values of both eyes were measured and used as the basic intraocular pressure value. […] The IOP was measured respectively 0, 1, 2, 3, 4, 6 and 8 h after the injection. The results obtained at individual time points were analyzed by student-t test, and the variation curve of IOP over time was analyzed using ANOVA test. […]

ROCK2, sequence (O75116 whole entry): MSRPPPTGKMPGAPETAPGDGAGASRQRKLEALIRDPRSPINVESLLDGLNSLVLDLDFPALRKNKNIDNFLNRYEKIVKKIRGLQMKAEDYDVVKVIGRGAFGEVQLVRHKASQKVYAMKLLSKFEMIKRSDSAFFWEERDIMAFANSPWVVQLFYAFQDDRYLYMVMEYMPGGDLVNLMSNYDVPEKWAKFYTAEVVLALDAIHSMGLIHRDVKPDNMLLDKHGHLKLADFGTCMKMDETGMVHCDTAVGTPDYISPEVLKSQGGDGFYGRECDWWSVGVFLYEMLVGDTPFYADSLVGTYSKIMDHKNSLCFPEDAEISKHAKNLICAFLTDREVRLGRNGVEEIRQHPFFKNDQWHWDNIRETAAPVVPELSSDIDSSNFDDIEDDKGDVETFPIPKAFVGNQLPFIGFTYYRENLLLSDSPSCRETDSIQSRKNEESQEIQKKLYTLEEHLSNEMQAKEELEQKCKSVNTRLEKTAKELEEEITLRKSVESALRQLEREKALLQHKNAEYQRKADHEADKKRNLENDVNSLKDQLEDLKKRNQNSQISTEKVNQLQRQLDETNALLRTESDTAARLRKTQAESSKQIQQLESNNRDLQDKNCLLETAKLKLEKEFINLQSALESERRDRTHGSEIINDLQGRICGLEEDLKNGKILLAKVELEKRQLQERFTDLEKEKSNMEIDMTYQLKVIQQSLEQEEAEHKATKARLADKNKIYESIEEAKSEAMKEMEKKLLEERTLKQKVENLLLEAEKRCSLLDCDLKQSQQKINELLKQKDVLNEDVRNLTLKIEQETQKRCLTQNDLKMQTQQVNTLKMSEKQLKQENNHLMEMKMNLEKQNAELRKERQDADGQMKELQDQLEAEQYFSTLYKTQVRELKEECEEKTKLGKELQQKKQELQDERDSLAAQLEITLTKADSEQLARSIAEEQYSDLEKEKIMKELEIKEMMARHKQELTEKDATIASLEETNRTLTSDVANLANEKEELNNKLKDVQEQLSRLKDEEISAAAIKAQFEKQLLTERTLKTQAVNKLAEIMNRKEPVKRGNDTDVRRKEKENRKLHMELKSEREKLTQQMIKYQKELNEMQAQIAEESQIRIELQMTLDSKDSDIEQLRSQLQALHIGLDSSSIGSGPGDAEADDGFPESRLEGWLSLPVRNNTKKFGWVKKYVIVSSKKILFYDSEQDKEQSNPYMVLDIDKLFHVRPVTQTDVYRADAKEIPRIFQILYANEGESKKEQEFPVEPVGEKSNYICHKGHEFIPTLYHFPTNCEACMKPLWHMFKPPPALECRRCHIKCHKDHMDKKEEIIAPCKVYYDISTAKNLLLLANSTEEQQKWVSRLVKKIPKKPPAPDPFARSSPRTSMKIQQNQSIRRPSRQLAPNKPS

Compound	IC50 [1] [nM]	IC50 (ROCK2) [nM]	further results
O=C(NC(c1ccccc1)C1CNC1)c1ccc2cnccc2c1 (stereo not shown) [Compound 9, N-(azetidin-3-yl-benzyl)isoquinoline-6-carboxamide]	250 to 1000	< 100	
COc1cccc([C@@H](CN(C)C)NC(=O)c2ccc3cnccc3c2)c1 [Compound 15, N—((S)-2-(dimethylamino)-1-(3-methoxyphenyl)ethyl)isoquinoline-6-carboxamide]	250 to 1000	< 100	
C[C@@H](N)[C@H]1CC[C@H](C(=O)Nc2ccncc2)CC1 [Compound Y-27632]			blood pressure of control rats (hypertensive model rats; control rats): fails to show significant effects on the blood pressure; blood pressure of hypertensive model rats (hypertensive model rats; spontaneous, renal and deoxycorticosterone acetate-induced hypertension): significantly lowering the blood pressure
CN(C)CCC(NC(=O)c1ccc2cnccc2c1)c1ccccc1 (stereo not shown) [Compound 8, N-(3-(dimethylamino)-1-phenyl-propyl)isoquinoline-6-formamide]	> 1000	< 100	
CN(C)C[C@@H](NC(=O)c1ccc2cnccc2c1)c1cccc(Cl)c1 [Compound 16, N—((S)-2-(dimethylamino)-1-(3-chlorophenyl)ethyl)isoquinoline-6-carboxamide]	250 to 1000		
NC[C@@H](NC(=O)c1ccc2cnccc2c1)c1cccc(Br)c1 [Compound 2, (S)—N-(2-amino-1-(3-bromophenyl)ethyl)isoquinoline-6-carboxamide]	< 250	< 100	
O=C(N[C@H](c1ccccc1)[C@@H]1CCNC1)c1ccc2cnccc2c1 [Compound 11a, N—((S)-phenyl-((R)-pyrrolidin-3-yl)methyl)isoquinoline-6-carboxamide]	250 to 1000	< 100	acting time compared to K115 [2]: a longer acting time; intraocular pressure-reducing activity compared to K115 [2]: a similar intraocular pressure-reducing activity; effect on alleviating high intraocular pressure [3]: a good effect on alleviating high intraocular pressure
NCCC(NC(=O)c1ccc2cnccc2c1)c1cccc(Cl)c1 (stereo not shown) [Compound 6, N-(3-amino-1-(3-chlorophenyl)propyl)isoquinoline-6-carboxamide]	< 250	< 100	
CN1CC(C(NC(=O)c2ccc3cnccc3c2)c2ccccc2)C1 (stereo not shown) [Compound 10, N-((1-methylazetidin-3-yl)-benzyl)isoquinoline-6-carboxamide]	250 to 1000	< 100	
O=C(N[C@@H](c1ccccc1)[C@H]1CCNC1)c1ccc2cnccc2c1 [Compound 14b, N—((R)-phenyl-((S)-pyrrolidin-3-yl)methyl)isoquinoline-6-carboxamide]		< 100	
CN1CC[C@@H]([C@H](NC(=O)c2ccc3cnccc3c2)c2ccccc2)C1 [Compound 13, N—((S)—((R)-1-methylpyrrolidin-3-yl)(phenyl)methyl)isoquinoline-6-carboxamide]	250 to 1000	< 100	
CCOC(=O)c1cc(-c2cccc(C(CCN)NC(=O)c3ccc4cnccc4c3)c2)cs1 (stereo not shown) [Compound 7, ethyl 4-(3-(3-amino-1-(isoquinoline-6-formamide)propyl)phenyl)thiophene-2-carboxylate]	250 to 1000	< 100	
CN(C)C[C@@H](NC(=O)c1ccc2cnccc2c1)c1ccccc1 [Compound 5, N-((1S)-2-(dimethylamino)-1-phenyl-ethyl)isoquinoline-6-formamide]	250 to 1000	< 100	acting time compared to K115 [2]: a longer acting time; intraocular pressure-reducing activity compared to K115 [2]: a similar intraocular pressure-reducing activity
CN1CC[C@@H]([C@@H](NC(=O)c2ccc3cnccc3c2)c2ccccc2)C1 [Compound 12, N—((R)—((R)-1-methylpyrrolidin-3-yl)(phenyl)methyl)isoquinoline-6-carboxamide]		< 100	
O=C(N[C@H](c1ccccc1)[C@H]1CCNC1)c1ccc2cnccc2c1 [Compound 14a, N—((S)-phenyl-((S)-pyrrolidin-3-yl)methyl)isoquinoline-6-carboxamide]		100 to 500	
NC[C@@H](NC(=O)c1ccc2cnccc2c1)c1ccccc1 [Compound 1, N—((S)-2-amino-1-phenyl-ethyl)isoquinoline-6-carboxamide]	250 to 1000	< 100	
Cc1ccc(C(=O)OCc2ccc([C@@H](CN)NC(=O)c3ccc4cnccc4c3)cc2)c(C)c1 [Compound 4, (S)-4-(2-amino-1-(isoquinoline-6-formamido)ethyl)benzyl 2,4-dimethylbenzoate]	> 1000	100 to 500	
O=C(N[C@@H](c1ccccc1)[C@@H]1CCNC1)c1ccc2cnccc2c1 [Compound 11b, N—((R)-phenyl-((R)-pyrrolidin-3-yl)methyl)isoquinoline-6-carboxamide]		< 100	
NC[C@@H](NC(=O)c1ccc2cnccc2c1)c1ccc(CO)cc1 [Compound 3, (S)—N-(2-amino-1-(4-(hydroxymethyl)phenyl)ethyl)isoquinoline-6-formamide]		100 to 500	
